Among the data in patent US11726088B2, “Sirtuin 4 (SIRT4) lipoamidase activity and uses thereof” (THE TRUSTEES OF PRINCETON UNIVERSITY, priority 2014, dated 2023) are SIRT4 knock-down, PDH activity and DLAT lipoyl levels values, retold here.

What all share (format): cell-based, human
Data set [1] deals with SIRT4 mRNA. Nature of the data set: SIRT4 knock-down efficiency by qRT-PCR in MRC5 cells stably expressing shRNA. The note with it: MRC5 fibroblasts, mRNA level by qPCR; listed as construct #5. The text has this:
SIRT4 shRNA expression. pLKO.1-puro vectors containing either non-targeting control shRNA or SIRT4-targeting shRNA were purchased from Sigma-Aldrich and are listed in FIG. 11. To generate MRC5 cells stably expressing each of the shRNA constructs, HEK293T cells were co-transfected with appropriate pLKO.1 vector, pCMVΔR8.2 (Addgene, plasmid #12263) and pMD2.G (Addgene, plasmid #12259) using FuGENE 6. Media containing lentivirus particles were used to transduce MRC5 cells, which were subsequently selected with 2 μg/mL puromycin (InvivoGen, cat. #ant-pr-1). Knockdown efficiency was measured by qRT-PCR and western blotting.
qRT-PCR analysis. For qRT-PCR analysis, MRC5 cells were collected and washed with PBS. Total RNA was isolated from cell pellets using RNeasy Mini Kit (Qiagen, cat. #74104) and the concentration/purity determined by measuring the absorbance 260/280 nm using NanoDrop Spectrophotometer (Thermo Fisher Scientific). For cDNA synthesis, 1 μg of RNA from each sample was first treated with DNase I (Life Technologies, cat. #18068015) and then used as a template in the RETROscript kit (Life Technologies, cat. #AM1710). The cDNAs were mixed with appropriate primers listed in FIG. 12 and Power SYBR green PCR master mix (Life Technologies, cat. #4368706) for qRT-PCR on ABI 7900HT Real-Time Thermocycler (Applied Biosystems). […]

Data set [2] has as its system PDH. Nature of the data set: PDH activity assay (immunocapture colorimetric) in fibroblasts stimulated with glutamax. Particulars: WT fibroblasts, glutamax 4 mM, versus unstimulated cells. On the procedure:
PDH activity assay. The activity of the PDHC in MRC5 derivate cell lines was measured using the Pyruvate Dehydrogenase Enzyme Activity Microplate Assay Kit (Abcam, cat. #ab109902) according to manufacturer's instructions. 1000 μg/well of cultured cell extract from each line being tested was used as input for PDHC binding, and 5 μg/well of pyruvate dehydrogenase from porcine heart (Sigma-Aldrich, cat. #P7032) used as a positive control for the assay. PDH activity was measured by reduction of NAD+ to NADH, coupled to the reduction of a reporter dye to yield a colored reaction product with an increase in absorbance at 450 nm at room temperature. […] Statistical significance was assessed by one-way ANOVA in GraphPad Prism 5. […]
We next investigated a cellular condition known to inhibit PDH activity, and examined the involvement of SIRT4 in this process. […] In agreement with these observations, we detected elevated expression of endogenous SIRT4 in cells stimulated with glutamax (FIG. 3J). To validate the dependence of PDH inhibition on SIRT4 activity, we first measured PDH activity in SIRT4 OE cells stimulated with glutamax. […] It remains to be determined whether residual SIRT4 still functions in these knocked-down lines to decrease PDH activity following glutamax stimulation, or another yet to be identified PDH inhibition mechanism is at play. […]

Data set [3] deals with DLAT lipoyl (K132 and K259). Nature of the data set: DLAT lipoyl levels by PRM quantification in glutamax-stimulated cells. Particulars: glutamax stimulation, within 48 hr. Here is the method:
Lipoyl-lysine SRM assay. The relative abundance of lipoyl-lysine-containing peptides identified from immunoisolated, in-gel digested DLAT (described above) was measured in mitochondria lysates using a selected reaction monitoring (SRM) full-scan tandem mass spectrometry assay. Purified mitochondria were isolated from MRC5 stable cell lines expressing EGFP, SIRT4-EGFP, and SIRT4-targeting shRNA (described above). Mitochondria pellets were lysed by agitation and bath sonication in 100 μL of hot (95° C.) buffer containing 0.1 M ammonium bicarbonate, 5 mM tris(2-carboxyethyl)phosphine, 1 mM nicotinamide, and 0.1% RapiGest. Protein concentration was determined using the Bradford reagent (Sigma). […] Eluates from the same sample were pooled and concentrated to near-dryness, diluted to 8 μL, and half were analyzed by an LC-SRM-MS/MS assay on an LTQ Orbitrap Velos mass spectrometry (Thermofisher Scientific). […] At least four co-eluting XICs (dot-product score of ≥0.95) were used for peak area quantification. […] Peak areas were summed across XICs, exported to Excel, and normalized across biological replicates (n=3-6) using the average chromatographic precursor intensity calculated by RawMeat (Vast Scientific, Inc). Statistical significance was determined by unpaired, two-tailed t-tests in Microsoft Excel. […]

Peptide text beside a SMILES is read from it.

For the compound “shSIRT4 #5: SIRT4-targeting shRNA construct in pLKO.1-puro vector, purchased from Sigma-Aldrich (DNA CCGGACAGGGACTTTCACTTGAATCCTCGAGGATTCAAGTGAAAGTCCCTGTTTTTTG)”, in data set [1], the SIRT4 knock-down is > 80%.

As for `C[C@H](N)C(=O)N[C@@H](CCC(N)=O)C(=O)O` [glutamax] (H-Ala-Gln-OH), in data set [2], the PDH activity result is given as “significant time-dependent decrease”. The DLAT lipoyl levels result in data set [3] is “decrease”.
